Earlier results as cited in patent publication US5656291A, “Controlled release preparation” (Pharmacia & Upjohn Aktiebolag, priority 1995, dated 1997).

Details: after oral administration

In the case of `CN1CC[C@]23c4c5ccc(O)c4O[C@H]2[C@@H](O)C=C[C@H]3[C@H]1C5` [Morphine], the “duration of analgesic effect” value is listed as 4 to 6 h.
